Results as given in patent US10478482B2, “Vaccines for prevention and treatment of tuberculosis” (ALARUM DEVELOPMENT LTD, priority 2011, dated 2019).

Experiments:
[1] = system: serum from patients with sarcoidosis; experiment: Antibody recognition of peptides by serum from patients with sarcoidosis; type: binding, human; conditions: for Average int. / N. of slide (frequency of recognition): serum from the group sarcoidosis; for N. of slide (frequency of recognition): out of 9 individuals
Description: (§1) Serum was obtained from patients with sarcoidosis (FIG. 4A) and from patients with TB (FIG. 4B). The number indicate the frequency of recognition, e.g. 1/9 individuals up to 9/9 individuals. The listed peptides are only listed if they are present in one group (sarcoidosis versus tuberculosis) and if the peptide is never recognized in any serum from the respective control group. […] Strong IgG response requires strong T-cell help which lends support that these antigens are also recognized by T-cells.

[2] = system: serum from patients with TB; experiment: Antibody recognition of peptides by serum from patients with TB; type: binding, human; conditions: for Average int. / N. of slide (frequency of recognition): serum from the group TB; for N. of slide (frequency of recognition): out of 9 individuals
Description: as §1

[3] = system: IFNγ production in freshly harvested Heparin-blood; type: cell-based, human
PBMCs = type: cell-based, monkey
peritoneal macrophages = experiment: Cytokine induction in peritoneal macrophages; type: cell-based, mouse; conditions: FIG. 10

Substance	Average int. [1]	N. of slide (frequency of recognition) [1]	Average int. [2]	N. of slide (frequency of recognition) [2]	further results
SSGKPGRDPEAGRYG [CAB02482-probable lipase lipe_385]	1.3190	9	–	–	–
NANFGGGNGSAFHGQ [CAE55320-PPE family protein_205]	1.4131	9	–	–	–
GGGNTGSGNIGNGNK [CAE55613-PPE family protein_193]	1.2266	9	–	–	–
GLYQVVPGIYQVRGF [CAA18084-possible hydrolase_85]	–	–	0.5432	8	–
GSSAMILAAYHPQQF [CAB10044-secreted antigen 85-B FBPB (85B)A_169]	0.6077	9	–	–	–
QWILHMAKLSAAMAK [CAA17973-conserved hypothetical alanine and_193]	–	–	0.4333	6	–
APALMDVEAAYEQMW [CAE55281-PPE family protein_133]	1.6787	9	–	–	–
Possible glycosyltransferase [CAB05419/Rv2957]	–	–	–	–	recognition by serum from the group TB (in words) [2]: most frequently recognized; recognition by serum from the group sarcoidosis (in words) [1]: never; antigen-specific T-cell responses (IFNγ) [3]: can be detected; intracellular cytokines, here represented by IL-2 (PBMCs): Detection of intracellular cytokines; induction of IL-10 (peritoneal macrophages): little induction; induction of IL-12 (peritoneal macrophages): Strong induction; induction of TGF-β (peritoneal macrophages): Strong induction; induction of TN-Fa (peritoneal macrophages): little induction
MTAPVWLASPPEVHS [CAE55538-PPE family protein_1]	–	–	0.8461	8	–
TRLGIRLVIVLVRRW [CAB05419-possible glycosyl transferase_241]	–	–	0.9264	9	–
VIGGIGPIHVQPIDI [CAE55585-PPE family protein_865]	0.7433	9	–	–	–
AAGNNVTVFGYSQSA [CAE55427-PPE family protein_289]	–	–	0.4545	6	–
LSGDNQQGFNFAGGW [CAE55276-PPE family protein_1117]	1.6435	9	–	–	–
AWVSRGAHKLVGALE [CAB10951-cytotoxin haemolysin homologue TLYA_61]	–	–	0.7175	7	–
NTGSYNMGDFNPGSS [CAE55416-PPE family protein_385]	–	–	0.9479	7	–
